Experimental data reported in patent US20050014754A1, “Fused pyrrole compounds” (priority 2003, published 2005).

Assays:
[1] = test system: MDA435 (human breast cancer); experiment: In-vitro assay measuring anti-cancer activity (MTS assay); assay type: cell-based; details: MDA435 cells, 72 hours incubation, read-out: IC50, concentration required to inhibit 50% tumor cell growth
Procedure: In vitro anti-cancer activity was determined in human cancer cell line MDA435 (human breast cancer), obtained from ATCC (American Type of Culture Collection).
The cell line was maintained in RPMI1640(GIBCO) supplemented with 10% FCS, 100 units/ml penicillin, 100 ug/ml streptomycin, and 2 mM L-glutamine. The cells were split every third day and diluted to a concentration of 2×10^5 cells/ml one day before experiment. The experiment was performed on exponentially growing cell culture. Cell densities were 2.5×10^4 cells/ml in this experiment.
A stock solution of Compound (I-4) was prepared by dissolving the compound at a concentration of 1 mM in 100% DMSO. Final concentrations were obtained by diluting the stock solution directly into the tissue culture medium. Cells were incubated with varying concentrations of the compound for 72 hours and the IC50 was determined by MTS (i.e. 3-(4.5.-dimethylthiazol-2-yl)-2.5-diphenyl tetrazolium bromide) assay. In this experiment, IC50 stands for the concentration of compound required to inhibit 50% tumor cell growth. Compound (I-4) provided an IC50 value of about 1 μM.

TNFα = experiment: In-vitro assay measuring TNFα inhibition (LPS-stimulated human PBMC, ELISA); assay type: cell-based; details: human PBMC stimulated with LPS 1 μg/mL, supernatant after 18 h, read-out: IC50, inhibition of TNFα production
Procedure: Reagents. Lipopolysaccharide (LPS, Serratia marscencens) was obtained from Sigma (St. Louis, Mo.). RPMI-1640 medium and fetal calf serum (FCS) were purchased from the ATCC (Manassas, Va.).
Assay. Human peripheral blood cells (PBMC) were isolated by centrifugation using Ficoll-Paque (Pharmacia Biotech, Uppsala, Sweden) and suspended in RPMI-1640 medium supplemented with 10% FCS, 100 U/mL penicillin, and 100 μg/mL streptomycin. The cells were then plated in the wells of a 96-well plate at a concentration of 5×10^5 cells/well, and stimulated by adding LPS (1 μg/mL). Each test compound was dissolved in DMSO and added to the wells. The final DMSO concentration was adjusted to 0.25% in all cultures, including the compound-free control, and the concentrations of each test compound ranged from 0 to 10 μM. Cell-free supernatants were taken 18 h later for measurement of cytokines. Cell viability was assessed using the bioreduction of MTS [3-(4,5-dimethylthiazol-2-yl)-5-(3-carboxymethoxyphenyl)-2-(4-sulophenyl)-2H-tetrazolium] after 18 h and 48 h. Cell survival was estimated by determining the ratio of the absorbance in each of the compound-treated cultures to that in the compound-free control.
The supernatant was assayed for the amount of TNFα by using an ELISA assay with anti-human TNFa antibodies (Cell Sciences, Norwood, Mass.). The assay was carried out following the manufacturer's instructions.

PDE4 = experiment: In-vitro assay measuring PDE4 inhibition (PDE4 from U937 human monocytic cells, [3H]-cAMP SPA); assay type: biochemical; details: 23 nM [3H]-cAMP, 37° C., 30 min
Procedure: PDE4 was prepared from U937 human monocytic cells according to the method of Tenor et al. (Clin Exp Allegy (1995) 25:625-633). Briefly, U937 cells were homogenized in a mixture of pH 7.4 containing 10 mM Hepes, 1 mM b-mercaptoethanol, 1 mM MgCl2, 1 mM EGTA, 137 mM NaCl, 2.7 mM KCl, 1.5 mM KH2PO4, 8.1 mM Na2HPO4, 5 μM pepstain A, 10 μM leupeptin, 50 μM PMSF, 10 μM soybean trypsin inhibitor, and 2 mM benzamindine. The homogenate was centrifuged at 200,000×g for 30 min. PDE4 activity in the supernatant was assayed in a 200 μl reaction containing 40 mM Tris-HCl, pH 7.5, 23 nM [^3H]-adenosine 3′,5′ cyclic monophosphate (cAMP), 8.3 mM MgCl2, 1.7 mM EGTA, 0.25% DMSO, and a testing compound. The assay mixture was incubated at 37° C. for 30 min and the reaction was terminated by the addition of 100 μl of yttrium silicate SPA beads (Amersham Pharmacia Biotech, Piscataway, N.J.) suspended in 18 mM ZnSO4. The assay mixture was rotated for 3 min to ensure the binding of [^3H]-5′adenosine monophosphate to the beads. Finally, the beads was spun down, washed twice with 6 mM ZnSO4, resuspended in 100 μl of 0.1 N NaOH, and then counted for radioactivity in a liquid scintillation counter.

| Compound | IC50 [1] [nM] | IC50 (TNFα) [nM] | IC50 (PDE4) [nM] |
| --- | --- | --- | --- |
| O=C(Nc1c(Cl)c[n+]([O-])cc1Cl)C(=O)c1cc(Cc2ccc(F)cc2)n2ncccc12 [Compound I-4, N-(3,5-Dichloro-1-oxy-pyridin-4-yl)-2-[7-(4-fluoro-benzyl)-pyrrolo[1,2-b]pyridazin-5-yl]-2-oxo-acetamide] | ~1000 | ~50 | ~5 |
| Cc1cc(NC(=O)C(=O)c2cc(Cc3ccc(C#N)cc3)n3ccsc23)sn1 [Compound I-10, 2-[5-(4-Cyano-benzyl)-pyrrolo[2,1-b]thiazol-7-yl]-N-(3-methyl-isothiazol-5-yl)-2-oxo-acetamide] |  | ~1000 |  |
